# Entries after “also recorded” stand apart in the source; their conditions may differ.
# What was measured:
# [1] = system: patients with primary periodic paralysis; experiment: Phase III double-blind plus open-label extension study: cognition-related adverse events during dichlorphenamide treatment; format: in vivo, human
# Experimental: Data were analyzed from a 9-week Phase III, randomized, double-blind, placebo-controlled phase and a 52-week open-label extension phase. The trial included two substudies: one in adults with hyperkalemic periodic paralysis and one in adults with hypokalemic periodic paralysis. The substudy data were pooled. Medical Dictionary for Regulatory Activities high-level group terms of deliria (including confusion) and mental impairment disorders were pooled for cognition-related events. Kaplan-Meier methods were used to estimate the percentages of patients with no occurrence of the adverse event over time.
# Dose reductions were allowed for intolerable adverse events. […] Adverse events reported during dichlorphenamide exposure were summarized by double-blind treatment/open label treatment (placebo/dichlorphenamide or dichlorphenamide/dichlorphenamide) group.
# The age range was 19 to 76 years.
# [2] = cited from earlier work
# [3] = cited from earlier work; remark: listed apart in the source
# [4] = n = 63, cognition-related adverse events
# [5] = n = 63, considered by investigators at least possibly related to study drug
# [6] = n = 63, listed as dichlorphenamide
compound,measurement,setting,value
"NS(=O)(=O)c1cc(Cl)c(Cl)c(S(N)(=O)=O)c1 [Dichlorphenamide, 4,5-dichloro-1,3-benzenedisulfonamide]",Intensity of cognition-related adverse events (in words),[1]; 61-week study,Most cognition-related adverse events were mild in intensity; also recorded: mild or moderate in intensity
same,"Discontinuation due to cognition-related adverse event, patients %",[1]; n = 63,(6.3) %
same,"Discontinuation due to cognition-related adverse event, patients n",[1]; n = 63,4 patients
same,"Resolution of last cognition-related adverse event: Resolved, patients %",[1]; n = 63,(17.5) %
same,"Resolution of last cognition-related adverse event: Resolved, patients n",[1]; n = 63,11 patients
same,"Resolution of last cognition-related adverse event: Under treatment/observation, patients %",[1]; n = 63,(7.9) %
same,"Resolution of last cognition-related adverse event: Under treatment/observation, patients n",[1]; n = 63,5 patients
same,"Any cognition-related adverse event, patients %","[1]; n = 63, 61-week study duration",(25.4) %
same,"Any cognition-related adverse event, patients n","[1]; n = 63, 61-week study duration, pooled hyper/hypokalemic periodic paralysis",16 patients
same,"Any cognition-related adverse event, patients %","[1]; n = 63, 61-week study duration, listed as dichlorphenamide",25.4%
same,"Adverse event intensity: Mild, patients %",[1]; [4],(14.3) %
same,"Adverse event intensity: Mild, patients n",[1]; [4],9 patients
same,"Adverse event intensity: Moderate, patients %",[1]; [4],(7.9) %
same,"Adverse event intensity: Moderate, patients n",[1]; [4],5 patients
same,"Adverse event intensity: Severe, patients %",[1]; [4],(3.2) %
same,"Adverse event intensity: Severe, patients n",[1]; [4],2 patients
same,"Any drug-related cognition-related adverse event, patients %",[1]; [5],(25.4) %
same,"Any drug-related cognition-related adverse event, patients n",[1]; [5],16 patients
same,"Discontinuation due to cognition-related adverse event, patients %",[1]; [6],6.3%
same,"Discontinuation due to cognition-related adverse event, patients n",[1]; [6],Four
same,"Patients with cognition-related adverse event who had the dose of dichlorphenamide reduced, %",[1]; of 16 patients with cognition-related adverse event,37.5%
same,Outcome of cognition-related adverse event after dose reduction,[1]; six patients with reduced dose,resolved in all six cases; also recorded: Reduced doses frequently resolved these adverse events
same,Onset of cognition-related adverse events,[1]; time from start of dichlorphenamide treatment,during the first four weeks; also recorded: within the first month of therapy
same,Stability of dilute alkaline solutions,[2]; room temperature,stable
same,Storage stability,[2]; storage,at least 36 months
same,Solubility in dilute solutions of sodium carbonate and sodium hydroxide,[3]; dilute sodium carbonate and sodium hydroxide solutions,soluble
same,Solubility in water,[3]; water,very slightly soluble
